Test results from the supplement of paper PMC8372320.

Assay: photocatalytic hydrogen evolution rate (per 5 mg catalyst); higher = more photocatalytic H2 evolution; extreme values may be limits of the assay
Details: catalyst mass (mg): 5; Pt cocatalyst (wt%): 3; sacrificial medium: triethylamine/methanol/water 1:1:1
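Also: aromatic molecules in triethylamine/methanol/water with Pt photoreduced in situ, irradiated 3 h under a 1 sun AM 1.5G solar simulator (350–1000 nm), H2 quantified by headspace gas chromatography; listed molecule itself used as the photocatalyst at 5 mg per vial.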

| photocatalytic hydrogen evolution rate [µmol/h] | Compound |
| --- | --- |
| 0.0522 | O=C(O)c1cc(C(=O)O)cc(-c2ccc(-c3cc(C(=O)O)cc(C(=O)O)c3)cc2)c1 |
| 0 | N#Cc1c(O)ccc(O)c1C#N |
| 3.19 | O=Cc1ccc(-c2cc(-c3ccc(C=O)cc3)c3ccc4c(-c5ccc(C=O)cc5)cc(-c5ccc(C=O)cc5)c5ccc2c3c54)cc1 |
| 0 | O=C(O)c1cc(C(=O)O)cc(-c2cc(C(=O)O)cc(C(=O)O)c2)c1 |
| 0 | N#Cc1ccc(C=O)cn1 |
| 0 | c1ccc(N(c2ccccc2)c2cc(N(c3ccccc3)c3ccccc3)cc(N(c3ccccc3)c3ccccc3)c2)cc1 |
| 0 | Fc1c(I)ccc(I)c1F |
| 0.0654 | N#Cc1ccc(C#N)c2ccccc12 |
| 0 | CNc1ccc(C#N)cc1 |
| 0 | Brc1ccc2c(c1)oc1cc(Br)ccc12 |
| 0 | N#Cc1ccc(-c2ccc(C#N)cc2)cc1 |
| 0 | BrCc1ccc(-c2ccc(CBr)cc2)cc1 |
| 0 | c1ccc(C(=C(c2ccccc2)c2ccccc2)c2ccccc2)cc1 |
| 0 | O=C(O)c1c(C(=O)O)c(C(=O)O)c(C(=O)O)c(C(=O)O)c1C(=O)O |
| 0 | N#Cc1cc(F)c(F)c(F)c1F |
| 0 | O=Cc1cc(O)c(O)cc1O |
| 0 | N#Cc1nccnc1C#N |
| 8.13 | N#Cc1c(F)c(F)c(C#N)c(F)c1F |
| 0.236 | CC(C)(C)c1ccnc(-c2cc(C(C)(C)C)ccn2)c1 |
| 0 | c1ccc(-c2ccc(-c3ccc(-c4ccc(-c5ccc(-c6ccccc6)cc5)cc4)cc3)cc2)cc1 |
| 4.66 | N#Cc1ccc(C(=O)c2ccc(C#N)cc2)cc1 |
| 0 | Oc1ccc2ccccc2c1-c1c(O)ccc2ccccc12 |
| 1.99 | N#Cc1cc(Br)c[nH]c1=O |
| 0 | N#CCc1nc2ccccc2s1 |
| 0.0704 | O=C(O)c1ccc(-c2ccc(C(=O)O)cc2)cc1 |
| 0.00118 | CC(C)(O)c1ccc(C(C)(C)O)cc1 |
| 0 | c1ccc2c(c1)[nH]c1ccccc12 |

| photocatalytic hydrogen evolution rate [µmol/h] | Compound |
| --- | --- |
| 0 | c1cn[nH]c1 |
| 0 | Fc1c(F)c(Br)c(F)c(F)c1Br |
| 0.135 | CC1(C)OB(c2ccc(-n3c4ccccc4c4ccccc43)cc2)OC1(C)C |
| 0 | N#Cc1ccc(Cc2ccc(C#N)cc2)cc1 |
| 0.0187 | N#Cc1ccnc(Br)c1 |
| 0 | Cc1ccc(N)cc1C#N |
| 0 | O=Cc1ccc(Cl)c(O)c1 |
| 0.00212 | O=C(O)c1ccc(-c2cc(-c3ccc(C(=O)O)cc3)cc(-c3ccc(C(=O)O)cc3)c2)cc1 |
| 0 | c1ccc(-c2cc(-c3ccccc3)nc(-c3ccccc3)c2)cc1 |
| 0 | Cc1c(C)c(Br)c(C)c(C)c1Br |
| 0.0826 | N#Cc1ccc(-c2ccc(N)nc2)cc1 |
| 0.0847 | CC1(C)OB(c2cc3ccc4cc(B5OC(C)(C)C(C)(C)O5)cc5ccc(c2)c3c45)OC1(C)C |
| 0.317 | O=Cc1ccc(N(c2ccccc2)c2ccccc2)cc1 |
| 6.77 | O=C(c1ccc(Br)cc1)c1ccc(Br)cc1 |
| 0 | C1=CSC(=C2SC=CS2)S1 |
| 0 | c1ccc2[nH]ccc2c1 |
| 0 | Nc1ccc(N)c2c1C(=O)c1c(N)ccc(N)c1C2=O |
| 0.174 | Brc1ccc(-c2ccc(-c3ccc(Br)s3)c3nsnc23)s1 |
| 0.478 | c1cnc2c(c1)ccc1cccnc12 |
| 0 | Brc1ccc(-c2ccc(Br)cc2)cc1 |
| 0 | N#Cc1cc(Br)ccc1Br |
| 0 | Cc1ccc(C#N)cc1N |
| 0.0342 | CCCCCCCCC1(CCCCCCCC)c2cc(B3OC(C)(C)C(C)(C)O3)ccc2-c2ccc(B3OC(C)(C)C(C)(C)O3)cc21 |
| 0.079 | O=Cc1ccccc1P(c1ccccc1)c1ccccc1 |
| 0 | CCN(CCO)c1ccc(N=Nc2ccc([N+](=O)[O-])cc2)cc1 |
| 28.3 | O=C1OC2(c3ccccc31)c1cc(I)c(O)c(I)c1Oc1c2cc(I)c(O)c1I |
| 0 | N#Cc1cc(Br)c(N)c(Br)c1 |

| photocatalytic hydrogen evolution rate [µmol/h] | Compound |
| --- | --- |
| 0 | O=C(O)c1c(F)c(F)c(C(=O)O)c(F)c1F |
| 0 | Brc1ccc2c(c1)[nH]c1cc(Br)ccc12 |
| 0 | N#Cc1cc(N)cc(F)c1 |
| 0 | CCc1c(CBr)c(CC)c(CBr)c(CC)c1CBr |
| 0.0183 | COc1cc(C=O)ccc1O |
| 0.214 | O=C1c2cc(Br)ccc2-c2ccc(Br)cc21 |
| 0.0873 | N#Cc1cncc(Br)n1 |
| 0 | N#CC(C#N)=c1cc(F)c(=C(C#N)C#N)cc1F |
| 0 | Brc1ccc2c(c1)C1(c3ccccc3-c3ccccc31)c1cc(Br)ccc1-2 |
| 0.0364 | O=Cc1cncnc1 |
| 0.468 | N#Cc1cnc(N)c(C#N)c1 |
| 0 | N#Cc1ccc(-c2ccccc2C#N)cc1 |
| 0 | N#Cc1ccnc(C#N)c1 |
| 0.0132 | CC1(C)c2ccccc2Oc2ccccc21 |
| 0.922 | Brc1ccc(N(c2ccc(Br)cc2)c2ccc(Br)cc2)cc1 |
| 0 | O=C(O)C(c1ccccc1)(c1ccccc1)c1ccccc1 |
| 0.0353 | N#Cc1c(F)c(F)c(F)c(F)c1F |
| 0 | N#Cc1cscc1C#N |
| 0.831 | O=Cc1cc(Br)cc(C=O)c1 |
| 9.93 | O=Cc1ccc2ccccc2c1 |
| 0 | O=Cc1cc(O)cc(F)c1 |
| 0 | Cc1ccc(C)c(N=Nc2cc(C)c(N=Nc3c(O)ccc4ccccc34)cc2C)c1 |
| 0 | N#Cc1cccc(N)c1 |
| 0.874 | O=C1Nc2c(Br)cc(Br)cc2C1=O |
| 0.383 | Brc1cc(Br)c2ccc3c(Br)cc(Br)c4ccc1c2c43 |
| 0.0789 | c1ccc(-c2nc(-c3ccccc3)nc(-c3ccccc3)n2)cc1 |
| 0.0108 | N#CCc1ccc(-c2ccc(CC#N)cn2)nc1 |

| photocatalytic hydrogen evolution rate [µmol/h] | Compound |
| --- | --- |
| 0.015 | N#Cc1c[nH]c2ccc(Br)cc12 |
| 0 | COC(=O)c1ccc2cc(Br)ccc2c1 |
| 1.5 | O=Cc1ccc(-n2ccnc2)cc1 |
| 0.000189 | O=Cc1cc(O)cc(Cl)c1 |
| 0 | NNC(=O)COc1ccc(Br)cc1Br |
| 0 | Nc1cc(C(=O)O)cc(C(=O)O)c1 |
| 25.2 | O=C1OC2(c3cc(Cl)c(O)cc3Oc3cc(O)c(Cl)cc32)c2ccccc21 |
| 20.2 | O=C1OC2(c3ccc(O)cc3Oc3cc(O)ccc32)c2ccccc21 |
| 0 | N#Cc1cncc(Br)c1 |
| 0 | N#Cc1ccc(Br)cc1F |
| 0 | COc1ccc(N2C(=O)c3ccc4c5ccc6c7c(ccc(c8ccc(c3c48)C2=O)c75)C(=O)N(c2ccc(OC)cc2)C6=O)cc1 |
| 0.0799 | CC1(C)c2cc(Br)ccc2-c2ccc(Br)cc21 |
| 0 | c1ccc(-c2c(-c3ccccc3)c(-c3ccccc3)c(-c3ccccc3)c(-c3ccccc3)c2-c2ccccc2)cc1 |
| 8.34 | N#Cc1ccc(-c2ccc(C#N)c(O)c2)cc1 |
| 0 | O=C(O)C1CCN(C(=O)c2ccccc2)CC1 |
| 0 | Brc1ccc(-c2ccc(-c3ccc(Br)s3)s2)s1 |
| 0.0527 | N#Cc1c(F)cc(F)cc1F |
| 0 | c1cc(-c2ccncc2)ccn1 |
| 0 | Brc1ccc(-c2ccc(-c3ccc(Br)cc3)cc2)cc1 |
| 10.5 | O=Cc1cc(Br)ccc1O |
| 0 | Brc1ccc(-c2cc(-c3ccc(Br)cc3)cc(-c3ccc(Br)cc3)c2)cc1 |
| 0 | Nc1c(F)c(F)c(-c2c(F)c(F)c(N)c(F)c2F)c(F)c1F |
| 0.0378 | COC(=O)c1cccc2cc3cccc(C(=O)OC)c3cc12 |
| 0 | Nc1ccc(-c2nc(-c3ccc(N)cc3)nc(-c3ccc(N)cc3)n2)cc1 |

| Compound | photocatalytic hydrogen evolution rate [µmol/h] |
| --- | --- |
| O=C1c2ccccc2C(=O)c2ccccc21 | 0 |
| COC(=O)c1ccc(-c2ccc(C(=O)OC)cc2)cc1 | 0.00435 |
| O=C(O)Cc1ccccc1 | 0.0603 |
| N#Cc1cccc(C=O)c1 | 0.204 |
| Nc1ccc(-c2ccc(N)c(O)c2)cc1O | 0.104 |
| Nc1ccccc1-c1ccccc1 | 0 |
| Cc1c2ccccc2c(C)c2ccccc12 | 0.68 |
| O=C1C(Cl)=C(Cl)C(=O)C(Cl)=C1Cl | 0 |
| O=Cc1ccc2ccc3cccc4ccc1c2c34 | 10.3 |
| N#CCc1ccc(CC#N)cc1 | 0 |
| c1csc(-c2ccc(-c3cccs3)s2)c1 | 0 |
| Oc1ccc(I)cc1 | 0 |
| c1ccc2sccc2c1 | 0 |
| Nc1cccc2ccccc12 | 0 |
| BrCc1cc(Br)cc(Br)c1 | 0 |
